Article PMC8072890, “Aminoalkylamides of Eremomycin Exhibit an Improved Antibacterial Activity” (Pharmaceuticals, 2021)

Experiments:
Type in all cases: cell-based
S. pneumoniae ATCC 6305 = test: MIC, broth dilution micromethod (CLSI); conditions: sensitive strain, modal values (or range) of 3–5 independent tests
From the text: (§1) The antimicrobial activity of semisynthetic derivatives of eremomycin 4a–q was studied in comparison with vancomycin on a wide panel of Gram-positive bacteria sensitive (Staphylococcus aureus ATCC 29213, S. aureus R-2, S. haemoliticus 602, S. pneumoniae ATCC 6305, Enteroccus faecium 4, and E. faecalis 559) and resistant to vancomycin (S. aureus 3797, S.aureus 3798, E. faecium 2, E. faecium 3576, E. faecalis 9, E. faecalis 583, and E. gallinarum BΠ 4147), information about the strains given in Table S3. The minimum microbial inhibitory concentration (MIC) for the test compounds was determined by the broth dilution micromethod according to CLSI guidelines, and vancomycin and a standard strain S. aureus ATCC 29213 used as controls (Figure 2 and Tables S4 and S5).
(§2) Table S4. Antibacterial activity of vancomycin and derivatives 4a–q against sensitive Gram-positive bacteria.
(§3) Strain/MIC (Minimum inhibitory concentration, μg/ml)*
(§4) Compound m n R S.aureus АТСС S.aureus R-2 S.haemoliticus S.pneumoniae АТСС E. faecium 4 E. faecalis 559
(§5) *MICs are presented as modal values for 3–5 independently replicated MIC tests for each strain and for the antibiotics. In the range of the
(§6) obtained MIC values, the obtained modal values are highlighted in bold.

E. faecium 4 = conditions: sensitive strain; broth dilution micromethod, CLSI; modal values (or range) of 3–5 independent tests
From the text: as §1, §2, §3, §4, §5, §6

E. faecalis 559 = conditions: sensitive strain; broth dilution micromethod, CLSI; modal values (or range) of 3–5 independent tests
From the text: as §1, §2, §3, §4, §5, §6

S. aureus R-2 = conditions: sensitive strain; broth dilution micromethod, CLSI; modal values (or range) of 3–5 independent tests
From the text: as §1, §2, §3, §4, §5, §6

S. haemoliticus 602 = conditions: sensitive strain; broth dilution micromethod, CLSI; modal values (or range) of 3–5 independent tests
From the text: as §1, §2, §3, §4, §5, §6

[1] = test system: Staphylococcus aureus ATCC 29213; conditions: vancomycin-sensitive control strain; broth dilution micromethod, CLSI; modal values (or range) of 3–5 independent tests
From the text: as §1, §2, §3, §4, §5, §6

E. gallinarum BΠ 4147 = conditions: strain resistant to vancomycin; broth dilution micromethod, CLSI; modal values (or range) of 3–5 independent tests
From the text: as §1
(§7) Table S5. Antibacterial activity of vancomycin and derivatives 4a–q against resistant Gram-positive bacteria.
(§8) Strain/MIC (minimum inhibitory concentration; μg/ml)
(§9) Compound m n R S.aureus 3797 S.aureus 3798 E. faecium 2 E. faecium 3576 E. faecalis 9 E. faecalis 583 E. gallinarum
(§10) *MICs are presented as modal values for 3–5 independently replicate MIC tests for each strain and for the antibiotics. In the range of the obtained MIC
(§11) values, the obtained modal values are highlighted in bold.

S. aureus 3797 = conditions: strain resistant to vancomycin; broth dilution micromethod, CLSI; modal values (or range) of 3–5 independent tests
From the text: as §1, §7, §8, §9, §10, §11

E. faecalis 9 = conditions: strain resistant to vancomycin; broth dilution micromethod, CLSI; modal values (or range) of 3–5 independent tests
From the text: as §1, §7, §8, §9, §10, §11

E. faecalis 583 = conditions: strain resistant to vancomycin; broth dilution micromethod, CLSI; modal values (or range) of 3–5 independent tests
From the text: as §1, §7, §8, §9, §10, §11

E. faecium 3576 = conditions: strain resistant to vancomycin; broth dilution micromethod, CLSI; modal values (or range) of 3–5 independent tests
From the text: as §1, §7, §8, §9, §10, §11

E. faecium 2 = conditions: strain resistant to vancomycin; broth dilution micromethod, CLSI; modal values (or range) of 3–5 independent tests
From the text: as §1, §7, §8, §9, §10, §11

S.aureus 3798 = conditions: strain resistant to vancomycin; broth dilution micromethod, CLSI; modal values (or range) of 3–5 independent tests
From the text: as §1, §7, §8, §9, §10, §11

Substance | MIC S.pneumoniae ATCC 6305 (S. pneumoniae ATCC 6305) [µg/mL] | MIC E. faecium 4 (E. faecium 4) [µg/mL] | MIC E. faecalis 559 (E. faecalis 559) [µg/mL] | MIC S.aureus R-2 (S. aureus R-2) [µg/mL] | MIC S.haemoliticus 602 (S. haemoliticus 602) [µg/mL] | MIC S.aureus ATCC 29213 [1] [µg/mL] | MIC E. gallinarum ВП 4147 (E. gallinarum BΠ 4147) [µg/mL] | MIC S.aureus 3797 (S. aureus 3797) [µg/mL] | MIC E. faecalis 9 (E. faecalis 9) [µg/mL] | MIC E. faecalis 583 (E. faecalis 583) [µg/mL] | MIC E. faecium 3576 (E. faecium 3576) [µg/mL] | MIC E. faecium 2 (E. faecium 2) [µg/mL] | MIC S.aureus 3798 (S.aureus 3798) [µg/mL]
Eremomycin N-(2-((3-fluorobenzyl)amino)ethyl)amide [4g] | 0.01 | 0.25 | 0.25 to 0.5 | 0.06 | 0.5 | 0.03 | 1 | 1 | 0.03 | 0.5 to 1 | 1 | 0.5 | 2
Eremomycin N-(2-((2-fluorobenzyl)amino)propyl)amide [4f] | 0.03 | 0.25 | 0.25 to 0.5 | 0.03 | 0.25 to 0.5 | 0.125 | 0.5 | 0.5 | 0.06 | 1 | 1 | 1 | 2
Eremomycin N-(2-phenethylamino)ethyl)amide [4b] | 0.01 | 0.5 | 0.5 | 0.06 | 0.5 | 0.5 | 1 | 1 | 0.06 | 0.5 | 2 | 1 | 2
Eremomycin N-(2-((2,6-difluorobenzyl)amino)ethyl)amide [4j] | 0.03 | 0.25 to 0.5 | 0.25 | 0.06 | 0.125 | 0.03 to 0.06 | 1 | 0.5 | 0.03 | 0.5 | 1 | 0.5 to 1 | 1
Eremomycin N-(2-((4-methoxybenzyl)amino)ethyl)amide [4d] | 0.01 | 0.25 | 0.5 | 0.06 | 0.25 | 0.03 | 1 | 0.5 | 0.03 | 0.5 | 0.5 to 1 | 0.5 | 0.5 to 1
Eremomycin N-(2-((2-chloro-6-fluorobenzyl)ethyl)amide [4m] | 0.06 | 0.5 | 0.5 to 1 | 0.125 to 0.25 | 0.125 | 0.25 | 2 | 2 | 0.25 to 0.5 | 1 | 2 | 1 | 2
Eremomycin N-(2-((3,4-dichlorobenzyl)amino)ethyl)amide [4o] | 0.5 | 1 | 2 | 1 | 0.5 | 1 | 2 | 2 | 0.25 to 0.5 | 2 | 2 | 2 | 1 to 2
Eremomycin N-(2-((3,5-difluorobenzyl)amino)ethyl)amide [4k] | 0.01 | 0.5 | 0.5 | 0.125 to 0.25 | 0.125 | 0.25 | 1 | 0.5 | 0.06 | 1 | 1 | 1 | 1
